ChEMBL document CHEMBL1201862, “PubChem BioAssay data set” (2004)
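Exposure lasted 48 hours, with cells grown in 96-well plates and compounds tested at five concentrations. The concentration for 50% growth inhibition is given as GI50.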 The source made the active and inactive calls. Rule as the data show it: active = GI50 up to about 1.1 µM and inactive = higher.

Columns and labels:
Assay in all cases: inhibition of tumour cell growth, NCI panel, 48 h
[1] = system: OVCAR-4
[2] = system: TK-10
[3] = system: Hs-578T
[4] = system: SNB-75
[5] = system: RPMI-8226
[6] = system: NCI-H460
[7] = system: HOP-62
[8] = system: K562
[9] = system: MOLT-4
[10] = system: SF-268
[11] = system: OVCAR-5
[12] = system: ACHN
[13] = system: SF-539
[14] = system: KM12
[15] = system: MCF7
[16] = system: MDA-N
[17] = system: A549
[18] = system: SK-MEL-5
[19] = system: HOP-92
[20] = system: IGROV-1

| SMILES | GI50 [1] | GI50 [2] | GI50 [3] | GI50 [4] | GI50 [5] | GI50 [6] | GI50 [7] | GI50 [8] | GI50 [9] | GI50 [10] | GI50 [11] | GI50 [12] | GI50 [13] | GI50 [14] | GI50 [15] | GI50 [16] | GI50 [17] | GI50 [18] | GI50 [19] | GI50 [20] |
| --- | --- | --- | --- | --- | --- | --- | --- | --- | --- | --- | --- | --- | --- | --- | --- | --- | --- | --- | --- | --- |
| Clc1ccc(Nc2nn3c(CCCCCCCCc4nnc5sc(Nc6ccc(Cl)cc6)nn45)nnc3s2)cc1 | > 100 µM (inactive) | 29.4 µM (inactive) | > 100 µM (inactive) | 23.3 µM (inactive) | > 100 µM (inactive) | > 100 µM (inactive) | 38.3 µM (inactive) | 50.5 µM (inactive) | 90.6 µM (inactive) | > 100 µM (inactive) | > 100 µM (inactive) | > 100 µM (inactive) | > 100 µM (inactive) | > 100 µM (inactive) | > 100 µM (inactive) | > 100 µM (inactive) | > 100 µM (inactive) | > 100 µM (inactive) | > 100 µM (inactive) |  |
| CCOc1cc(-c2nc3ccccn3c2/N=C/c2cc(Br)ccc2O)ccc1O | 14.1 µM (inactive) | 21.1 µM (inactive) | 61.4 µM (inactive) | 5.62 µM (inactive) | 26.5 µM (inactive) | 58.3 µM (inactive) | 20.3 µM (inactive) | 24.2 µM (inactive) | 45.7 µM (inactive) | 19.1 µM (inactive) | 73.5 µM (inactive) | 47.5 µM (inactive) | 29.6 µM (inactive) |  | 13.9 µM (inactive) | 46.1 µM (inactive) | 37.9 µM (inactive) | 30.3 µM (inactive) | 21.1 µM (inactive) | 20.6 µM (inactive) |
| Cc1ccc(C)c(NC(=O)/C(=N\N)C(c2cnc3ccc([N+](=O)[O-])cc3n2)[N+](=O)[O-])c1 (configuration not stated) | 18.4 µM (inactive) | > 100 µM (inactive) | 80.4 µM (inactive) | > 100 µM (inactive) | 45.9 µM (inactive) | 70.3 µM (inactive) | 40 µM (inactive) | > 100 µM (inactive) | 54.5 µM (inactive) | 93.5 µM (inactive) | > 100 µM (inactive) | 14.5 µM (inactive) | > 100 µM (inactive) | 47.9 µM (inactive) | 60.8 µM (inactive) | > 100 µM (inactive) | 92.7 µM (inactive) | 41.6 µM (inactive) | > 100 µM (inactive) | 51.9 µM (inactive) |
| Nc1nc(O)c2c(n1)NCN(CCCN1CCOCC1)C2 | > 100 µM (inactive) | > 100 µM (inactive) | > 100 µM (inactive) |  | > 100 µM (inactive) | > 100 µM (inactive) | > 100 µM (inactive) | > 100 µM (inactive) | 46.7 µM (inactive) | > 100 µM (inactive) | > 100 µM (inactive) | > 100 µM (inactive) | > 100 µM (inactive) | > 100 µM (inactive) | > 100 µM (inactive) | > 100 µM (inactive) | > 100 µM (inactive) | > 100 µM (inactive) | > 100 µM (inactive) | > 100 µM (inactive) |
| Cc1cn(C2CC(O)C(CO[Si](C)(C)C(C)(C)C)OC2OC(C)C)c(=O)[nH]c1=O (configuration not stated) | 44.5 µM (inactive) | 39.5 µM (inactive) | 67.3 µM (inactive) | > 100 µM (inactive) | 37.7 µM (inactive) | 31.6 µM (inactive) |  | 49.3 µM (inactive) |  | 51.3 µM (inactive) | > 100 µM (inactive) | 50.5 µM (inactive) | 21.9 µM (inactive) | 49.5 µM (inactive) | 22.4 µM (inactive) | 36.1 µM (inactive) | 34.1 µM (inactive) | 32.7 µM (inactive) | 32.2 µM (inactive) | 29.8 µM (inactive) |
| c1ccc(CSc2nnc3c4ccccc4c4ccccc4c3n2)cc1 | 48.1 µM (inactive) | 26.9 µM (inactive) | 36.2 µM (inactive) | 8.73 µM (inactive) | 48 µM (inactive) | > 88.3 µM (inactive) | 24.8 µM (inactive) | 14.8 µM (inactive) | 39.1 µM (inactive) | 19.1 µM (inactive) | > 100 µM (inactive) | 61 µM (inactive) | 31.4 µM (inactive) | > 100 µM (inactive) | 29.1 µM (inactive) | 56.1 µM (inactive) | > 89.3 µM (inactive) | > 100 µM (inactive) | 21.2 µM (inactive) |  |
| N#Cc1c(C#N)c(-c2cccc([N+](=O)[O-])c2)n(-c2ccccc2)c1N | 11.5 µM (inactive) | > 100 µM (inactive) | 55.1 µM (inactive) | 3.33 µM (inactive) | > 100 µM (inactive) |  | 49.4 µM (inactive) | > 100 µM (inactive) | > 100 µM (inactive) | 88.7 µM (inactive) | > 100 µM (inactive) | > 100 µM (inactive) | 21.1 µM (inactive) | > 100 µM (inactive) | > 100 µM (inactive) | > 100 µM (inactive) | 33.8 µM (inactive) | > 100 µM (inactive) | 17.8 µM (inactive) | 89.1 µM (inactive) |
| Cn1c2c(c3ccccc31)CCN1C(=O)C3SC21C1C(=O)N(c2ccccc2)C(=O)C31 (configuration not stated) | > 100 µM (inactive) | 23.8 µM (inactive) | > 100 µM (inactive) |  | 38.1 µM (inactive) |  | > 100 µM (inactive) | 40.4 µM (inactive) | 38.5 µM (inactive) | > 100 µM (inactive) | > 100 µM (inactive) | 33 µM (inactive) | 39.7 µM (inactive) | > 100 µM (inactive) | 30.4 µM (inactive) | > 100 µM (inactive) | > 100 µM (inactive) | 20.4 µM (inactive) | > 100 µM (inactive) | > 100 µM (inactive) |
| Cc1cn(CCCCOC(=O)NC(CCCNC(N)=O)C(=O)O)c(=O)[nH]c1=O (configuration not stated) | > 100 µM (inactive) | > 100 µM (inactive) | > 100 µM (inactive) | > 100 µM (inactive) | > 100 µM (inactive) | > 100 µM (inactive) | > 100 µM (inactive) | > 100 µM (inactive) | > 100 µM (inactive) | > 100 µM (inactive) | > 100 µM (inactive) | > 100 µM (inactive) | > 100 µM (inactive) | > 100 µM (inactive) | > 100 µM (inactive) | > 100 µM (inactive) | > 100 µM (inactive) |  | > 100 µM (inactive) | > 100 µM (inactive) |
| O=C(c1ccsc1)c1nccc2c1cnc1ccccc12 | 94.8 µM (inactive) | 42.6 µM (inactive) | 17 µM (inactive) | 30.5 µM (inactive) | > 100 µM (inactive) | 89.9 µM (inactive) | 25.5 µM (inactive) |  | 4.44 µM (inactive) | 77.3 µM (inactive) | 49.8 µM (inactive) | > 100 µM (inactive) | > 100 µM (inactive) | > 100 µM (inactive) | 47.2 µM (inactive) | > 100 µM (inactive) | > 100 µM (inactive) | 36.2 µM (inactive) | 22.5 µM (inactive) | 0.286 µM (active) |
| O=c1c2c3c(sc2nc2n1sc1nc4sc5c(c4c(=O)n12)CCCC5)CCCC3 | 18.7 µM (inactive) | 89.1 µM (inactive) | 39.6 µM (inactive) |  | 22.2 µM (inactive) | > 100 µM (inactive) | > 100 µM (inactive) | 25.1 µM (inactive) | 37.1 µM (inactive) | 42 µM (inactive) | > 100 µM (inactive) | 61.5 µM (inactive) | 56 µM (inactive) | > 89.7 µM (inactive) | 23.8 µM (inactive) | > 51.3 µM (inactive) | > 77.1 µM (inactive) | > 100 µM (inactive) | 51.2 µM (inactive) | > 100 µM (inactive) |
| Cc1ccccc1Nc1nc(NNC(=O)Cc2ccccc2)nc(NNC(=O)c2ccncc2)n1 | > 10 µM (inactive) | > 10 µM (inactive) | > 10 µM (inactive) | > 10 µM (inactive) | > 10 µM (inactive) | > 10 µM (inactive) | > 10 µM (inactive) | > 10 µM (inactive) | > 10 µM (inactive) | > 10 µM (inactive) |  |  | > 10 µM (inactive) | > 10 µM (inactive) | > 10 µM (inactive) | > 10 µM (inactive) |  |  | > 10 µM (inactive) | > 10 µM (inactive) |
| Cc1cc(C)c2c(c1)CC1(Cc3c(C)cc(C)cc3C1=O)C2=O (configuration not stated) | 46.3 µM (inactive) | > 100 µM (inactive) | > 100 µM (inactive) | > 100 µM (inactive) | > 100 µM (inactive) | > 100 µM (inactive) |  | > 100 µM (inactive) | > 100 µM (inactive) | > 100 µM (inactive) | > 100 µM (inactive) | > 100 µM (inactive) | 35.8 µM (inactive) | > 100 µM (inactive) | > 100 µM (inactive) | > 100 µM (inactive) | 98.6 µM (inactive) | > 100 µM (inactive) | > 100 µM (inactive) | 84.5 µM (inactive) |
| Cc1cc(S(=O)(=O)NC(=C(C#N)C#N)[n+]2ccc(N(C)C)cc2)c([S-])cc1Cl | 99.5 µM (inactive) | > 100 µM (inactive) | > 100 µM (inactive) |  | > 100 µM (inactive) | > 100 µM (inactive) | > 100 µM (inactive) | > 100 µM (inactive) | > 100 µM (inactive) | > 100 µM (inactive) | > 100 µM (inactive) | > 100 µM (inactive) | > 100 µM (inactive) | > 100 µM (inactive) | > 100 µM (inactive) | > 100 µM (inactive) | > 100 µM (inactive) | > 100 µM (inactive) | 28.7 µM (inactive) | > 100 µM (inactive) |
